In PubChem BioAssay (NCI):
Values joined by “and” are separate entries in the source; they are usually repeats but may differ in a detail not shown here. Identical values can stand only once.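 Each compound was tested at five concentrations against cells in 96-well plates for 48 hours. GI50 is the concentration that inhibits growth by half. TGI denotes the concentration required for complete inhibition of growth.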

Experiments:
Test in all cases: NCI tumour cell line growth inhibition, 48 h
MCF7 breast = system: MCF7 breast
DU-145 prostate = system: DU-145 prostate
PC-3 prostate = system: PC-3 prostate
HCC-2998 colon = system: HCC-2998 colon
SK-MEL-28 melanoma = system: SK-MEL-28 melanoma
HT29 colon = system: HT29 colon
A498 renal = system: A498 renal
NCI-H460 lung = system: NCI-H460 lung
HS 578T breast = system: HS 578T breast
NCI-H23 lung = system: NCI-H23 lung
K-562 leukemia = system: K-562 leukemia

SMILES	TGI (MCF7 breast) [µM]	TGI (DU-145 prostate) [µM]	TGI (PC-3 prostate) [µM]	TGI (HCC-2998 colon)	TGI (SK-MEL-28 melanoma)	TGI (HT29 colon)	TGI (A498 renal) [µM]	TGI (NCI-H460 lung)	TGI (HS 578T breast) [µM]	TGI (NCI-H23 lung)	TGI (K-562 leukemia)	GI50 (HCC-2998 colon) [µM]	GI50 (SK-MEL-28 melanoma) [µM]	GI50 (HT29 colon) [µM]	GI50 (K-562 leukemia) [µM]	GI50 (HS 578T breast) [µM]	GI50 (NCI-H23 lung) [µM]
O=[N+]([O-])c1ccc2c(N=Nc3ccc4ccccc4c3O)c(O)cc(S(=O)(=O)O)c2c1	> 100	> 88.4	> 100	> 100 µM	> 100 µM	> 100 µM	> 100	> 100 µM	> 100	> 93.4 µM	> 95.1 µM						
CCOC(=O)c1cc([N+](=O)[O-])cc([N+](=O)[O-])c1Sc1ncnc2nc[nH]c12	4.08	5.42	9.57	30.2 µM	11.2 µM	15.3 µM	25.3	33.9 µM	71.2		> 100 µM						
O=C1c2c(F)c(F)c(F)c(F)c2SC2=Nc3cccc4cccc(c34)N12	16	24.9	17.2	28.5 µM	15.9 µM	21.4 µM	35.2	29.3 µM	7.73	10.9 µM	4.49 µM						
Cc1cc2nc(CC(C(F)(F)F)C(F)(F)F)oc2cc1C	24.1	16.4	5.43	11.8 µM	15.8 µM	7.91 µM	26.3	15.3 µM	16.6	8.15 µM							
Cc1cc(N)c2cc(NC(=O)Nc3ccc4nc(C)cc(N)c4c3)ccc2n1	> 100	> 100	> 100	> 100 µM	> 100 µM	> 100 µM	> 100	> 100 µM	> 100	> 100 µM	> 100 µM						
NC(CS)C(=O)NCCNc1ccc(NCCNC(=O)C(N)CS)c2c1C(=O)c1c(O)ccc(O)c1C2=O (stereo not drawn)	1.21	0.123	1.13	1.13 µM and 0.822 µM	2 µM and 1.81 µM	1.08 µM and 0.689 µM	0.344	0.208 µM and 0.125 µM	0.615	0.0636 µM and 0.0484 µM	0.614 µM and 0.145 µM	0.196	0.43	0.0454	0.0192		
CC1=C(C(=O)NCCCN(CCO)CCO)CC(C(=O)NCCCN(CCO)CCO)=C(C)N1	> 100	> 100	> 100	> 100 µM		> 100 µM	> 100	> 100 µM	> 100	> 100 µM	> 100 µM						
O=c1cc(NNc2cccc(F)c2)[nH]c(=S)[nH]1	> 100	> 100	> 100	> 100 µM	> 100 µM	> 100 µM	> 100	> 100 µM	> 100		> 100 µM						
CCOC(=O)[C@@]12NN=N[C@@H]1[C@H]1CO[C@H](c3ccccc3)N1C2=O	25.3	34.3	26	25.7 µM	19.5 µM	32.4 µM	24.1	20.5 µM	17.8	32.8 µM							
Cc1ccc(O)cc1 (tested in a mixture with another compound)	> 100	> 100	> 100	> 100 µM	> 100 µM	> 100 µM	> 100	> 100 µM	> 100	> 100 µM	> 100 µM						
COc1cccc(/C=N/NC(=O)CN(C)C)c1O	> 100	> 100	> 100	> 100 µM	> 100 µM	> 100 µM	> 100	> 100 µM	> 100	> 100 µM	> 100 µM						
O=C1CCc2ccccc2O1	> 100	> 100	> 100	> 100 µM	> 100 µM	> 100 µM	> 100	> 100 µM	> 100	> 100 µM	> 100 µM						
O=C(NCCCc1cn[nH]c(=O)n1)c1cccc2nc3ccccc3nc12	> 100	> 100	> 100	> 100 µM	> 100 µM	> 100 µM	> 100	> 100 µM	> 100	> 100 µM	> 100 µM						
Clc1ccc(Nc2nnc(CNc3ccc(-c4nnc(Nc5ccc(Cl)cc5)o4)cc3)o2)cc1	34.9	26.2	25.3	27.8 µM	34.7 µM	33.1 µM	28.9	41.6 µM	36.7	36 µM	> 100 µM						
Cc1sc2nc3n(c(=O)c2c1C)N=C(c1ccccc1)CS3	> 100	> 100	> 100	> 100 µM	> 100 µM	> 100 µM	> 100	> 100 µM	> 100	> 100 µM	> 100 µM						
CC1(C)OC2OC(C(=O)c3ccccc3)C3OC(C)(C)OC3C2O1 (stereo not drawn)	> 100	> 100	> 100	> 100 µM			> 100	> 100 µM	> 100	> 100 µM	> 100 µM						
Cc1cc2c(cc1-c1cc3c(cc1C)C(C(C)C)=C(O)C(=O)/C3=C\Nc1ccccn1)/C(=C/Nc1ccccn1)C(=O)C(O)=C2C(C)C	> 100	> 100	> 100	60.2 µM	> 100 µM		> 100	> 100 µM	> 100	> 100 µM	> 100 µM						

SMILES	TGI (MCF7 breast) [µM]	TGI (DU-145 prostate) [µM]	TGI (PC-3 prostate) [µM]	TGI (HCC-2998 colon)	TGI (SK-MEL-28 melanoma)	TGI (HT29 colon)	TGI (A498 renal) [µM]	TGI (NCI-H460 lung)	TGI (HS 578T breast) [µM]	TGI (NCI-H23 lung)	TGI (K-562 leukemia)	GI50 (HCC-2998 colon) [µM]	GI50 (SK-MEL-28 melanoma) [µM]	GI50 (HT29 colon) [µM]	GI50 (K-562 leukemia) [µM]	GI50 (HS 578T breast) [µM]	GI50 (NCI-H23 lung) [µM]
O=C1c2ccccc2C(=O)c2c(NCC3CO3)cccc21 (stereo not drawn)	7.14	> 34.3	> 57	> 100 µM	> 63.7 µM	> 86 µM	> 100	> 100 µM	> 100	> 40.4 µM	17.3 µM						
O=C(CBr)NCCc1c[nH]c2ccccc12	4.72	4.19	4.03	24.9 µM	11.3 µM	3.51 µM	41.2	15 µM	42.2	3.19 µM	8.41 µM						
Cc1ccc(S(=O)(=O)NCCCSCCO)cc1	> 100	> 100	> 100	> 100 µM	> 100 µM	> 100 µM	> 100	> 100 µM	> 100	> 100 µM	> 100 µM						
COc1cc(/C=C/c2ccc(S(N)(=O)=O)cc2)cc(OC)c1	75.1	72.8	56.1	38.1 µM	56.8 µM	33.2 µM	39.5	42.9 µM	48.5	49.8 µM	76.7 µM			16.2	28.7	20.1	22.5
O=C(NCCC1CN(S(=O)(=O)C(F)(F)F)c2ccccc21)OCc1ccccc1 (stereo not drawn)	> 100	> 100	> 100	> 100 µM	> 100 µM	> 100 µM	> 100	> 100 µM	> 100	> 100 µM	> 100 µM						
N#Cc1c(O)c(C=O)c(=O)n2c1[nH]c1ccccc12	> 100	> 100	> 100	> 100 µM	> 100 µM	> 100 µM	> 100	> 100 µM	> 100	> 100 µM	> 100 µM						
COc1cc2c(cc1OC)-c1[nH]c3ccc([N+](=O)[O-])cc3c1CC(=O)N2	34.9	> 100	99.4	5.6 µM	> 100 µM	> 100 µM	8.31	6.4 µM	> 100	> 100 µM	> 100 µM						
Cc1csc2c(=O)n(COCc3ccccc3)c(=O)[nH]c12	> 100	> 100	> 100		> 100 µM	> 100 µM	> 100	> 100 µM	> 100	> 100 µM	> 100 µM						
N#CCN1CCCN(CC#N)CCN(CC#N)CCCN(CC#N)CC1	> 100	> 100	> 100	> 100 µM	> 100 µM		> 100	> 100 µM	> 100	> 100 µM	> 100 µM						
CN(C)CCCN=c1c2ccccc2n(C)c2[nH]c(=O)n(C)c(=O)c12	26.6	> 79	22.4		26.8 µM	39.2 µM	38	11.5 µM	52.6	21.7 µM	> 52 µM						
CC(=O)CC12NC(=O)N(C)N=C1N(C)C(=O)N(C)C2=O (stereo not drawn)	> 100	> 100	> 100	> 100 µM	> 100 µM	> 100 µM	> 100	> 100 µM	> 100	> 100 µM	> 100 µM						
CCN(CCN(CC)C(=O)NC)C(=O)NC	> 100	> 100	> 100	> 100 µM	> 100 µM	> 100 µM	> 100	> 100 µM	> 100	> 100 µM	> 100 µM						
O=C1C(c2c(O)[nH]c3ccc(I)cc23)=Nc2ccccc21	15.7	> 100	9.4	> 22.9 µM	> 86.3 µM	> 100 µM	5.57	> 88.6 µM	> 100	45.7 µM	> 100 µM						
COc1ccc(C=NCCCN=Cc2ccc(OC)cc2O)c(O)c1	> 100	> 100	> 100		> 100 µM	> 100 µM	> 100	> 100 µM	63.7	> 100 µM	> 100 µM						
NCCN(CCN)/[N+]([O-])=N/O	> 100	> 100	> 100	> 100 µM	> 100 µM	> 100 µM	> 100	> 100 µM	> 100	> 100 µM	> 100 µM						
Cn1c(=O)oc2cc(C(=S)N3CCCCC3)ccc21	> 100	> 100	> 100		> 100 µM	> 100 µM	> 100	> 100 µM	> 100	> 100 µM	> 100 µM						
